In the experiment the test system is total germ count (aerobic bacteria) in wire water of a newsprint paper machine. The experiment can be described thus: Total germ count by plating on agar, wire water in a flow cell system dosed daily with biocide. Format: cell-based. As to conditions: 5 days in a flow cell, 48° C. The procedure: Furthermore, conventional platings on agar (Plate Count Agar from Merck, Darmstadt, Germany) were also carried out to obtain an indication of the total germ counts.
The aim was to determine the correlation between the results of a conventional biocide screening and the real formation of slime deposits. The investigations were carried on the wire water of a newsprint paper machine using 100% TMP. With a biocide screening, it was possible to determine the optimum biocide concentration for the achievement of a germ count reduction by 10^2 within 30 minutes. In order to follow slime formation at this biocide concentration, a flow cell system with suspended coupons was employed.
The wire water, which was also used for the biocide screening, was poured into the storage bottles of this system and enriched with a number of clots of slime from the wire water channel. The investigation was carried out at system temperature (in this case 48° C.). During the test period of 5 days, biocide was dosed daily. After exposure, the coupons were immediately selectively dyed in order to distinguish between live and dead organisms and then analysed with CLSM. Samples were plated on an agar medium (aerobically) at the same time.

Where only a bound is given, the exact number is not on record here.

`N#CC(Br)(Br)C(N)=O` [DBNPA, dibromonitrile propionamide] yielded a Total germ count (DBNPA 40 ppm product) of less than 1000 cfa/ml. Turning to `CC(=O)OO` [peracetic acid], for the setting “peracetic acid 60 ppm product”, the Total germ count was less than 1000 cfu/ml.

The values are drawn from patent US20080164212A1, “Method for Determining and Controlling the Formation of Deposits In a Water System” (ASHLAND LICENSING AND INTELLECTUAL PROPERTY LLC., priority 2005, published 2008).
